Data as given in US11197862B2, “Methods of preventing toxicity of platinum drugs” (XOMICS BIOPHARMA, INC., priority 2015, dated 2021).
“Also recorded” adds a separate entry of the source.

Tests used:
[1] = tested on: HT-29 cells; test: Anti-proliferation study (SRB assay) in HT-29 cells; details: for effect on anti-tumor potency of gemcitabine in HT-29: buflomedil 6 μM, FIG. 13; for effect on anti-tumor potency of 5-FU in HT-29: buflomedil 6 uM, dolutegravir 3, 6 and 9 μM, FIG. 12
Procedure: The potency was determined by the sulforhodamine B (SRB) assay in 96-well plates. […] Seeding density was 3000 cells/well for both cell lines.

[2] = target: T1, OCT2 (Homo sapiens, UniProt O15244); details: OCT2-mediated uptake; ASP+ 5 μM in HBSS; from Kido Y et al. J Med Chem 2011; cited from earlier work
T1 sequence (O15244 1-555): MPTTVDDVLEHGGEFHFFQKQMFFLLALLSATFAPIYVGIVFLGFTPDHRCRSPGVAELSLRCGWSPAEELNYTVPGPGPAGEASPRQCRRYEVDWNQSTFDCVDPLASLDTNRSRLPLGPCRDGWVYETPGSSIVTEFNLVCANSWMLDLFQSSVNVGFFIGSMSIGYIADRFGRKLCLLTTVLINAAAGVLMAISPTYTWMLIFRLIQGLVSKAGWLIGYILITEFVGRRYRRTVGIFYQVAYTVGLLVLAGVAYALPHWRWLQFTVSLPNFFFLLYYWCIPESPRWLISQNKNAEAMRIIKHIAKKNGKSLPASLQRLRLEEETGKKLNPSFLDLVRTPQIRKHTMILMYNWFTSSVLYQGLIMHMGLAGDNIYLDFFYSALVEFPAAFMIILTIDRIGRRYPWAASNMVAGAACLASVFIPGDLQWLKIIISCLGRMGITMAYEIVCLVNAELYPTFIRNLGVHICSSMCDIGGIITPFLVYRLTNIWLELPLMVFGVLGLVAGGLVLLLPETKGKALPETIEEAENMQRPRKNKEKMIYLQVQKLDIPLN

[3] = target: MATE2K (Homo sapiens, UniProt Q86VL8); test: Inhibition of MATE2K-mediated oxaliplatin transport in human serum or 4% BSA HBSS
Source text: (§1) Fully confluent MDCK cell monolayers were transfected with either cDNA plasmids encoding the human transporter to be tested or a GFP control. […] The cells were then washed with ice-cold PBS and lysed with 50:50 acetonitrile:H2O. Intracellular content of the substrate was quantified by LC/MS/MS or a MicroBeta radiometric plate reader.

[4] = tested on: Balb/c mice exposed to chronic treatment with Oxaliplatin; test: Caudal nerve conduction study in chronic oxaliplatin neuropathy model; format: in vivo, mouse; details: for caudal nerve action potential amplitude / caudal nerve conduction velocity: OXA 3.5 mg/kg iv, 8 cycles ± BFMD 30 mg/kg ip + 15 mg/kg iv
Procedure: The development of peripheral neuropathy after chronic administration of drugs was assessed by evaluating the nerve conduction velocity (NCV) along caudal and digital nerve using an electromyography apparatus (Myto2 ABN Neuro, Firenze, Italy). Caudal NCV was determined by placing a couple of recording needle electrodes at the base of the tail and a couple of stimulating needle electrodes 3.5 cm distally to the recording points. Similarly, the digital NCV was determined by placing the recording electrodes close to the ankle bone and the stimulating electrodes close to the fourth toe near the digital nerve. The intensity, duration and frequency of stimulation were set up in order to obtain optimal results. All the neurophysiological determinations were performed under standard conditions in a temperature-controlled room (22+/−2° C.) and the animal under isoflurane anesthesia along the whole procedure with continuous monitoring of vital signs.

[5] = tested on: Balb/c mice exposed to chronic treatment with Oxaliplatin; test: Cold Plate Test in chronic oxaliplatin neuropathy model; format: in vivo, mouse; details: for Cold Plate Test pain signs after third injection / Cold Plate Test pain signs at the end of treatment (eight injections): OXA 3.5 mg/kg iv ± BFMD 30 mg/kg ip + 15 mg/kg iv; for Cold Plate Test pain signs after third injection: 3 cycles
Procedure: Cold Plate Test was used to determine the alterations in cold temperature related pain perception and their changes due to pharmacological treatment. Cold Plate Test was performed by using an apparatus (35100—Hot/Cold Plate. Ugo Basile instruments) composed by a Plexiglas cylinder and a thermostatic plate, able to reach variable temperatures. The mice were placed on the plate set at +4° C., free to move and walk. Two blinded experimenters simultaneously determine the number of pain signs (e.g. jumping, licking, etc.) in a trial of 5 minutes.

[6] = tested on: OCT2 and MATE1; test: Buflomedil inhibition of OCT2 and MATE1 with metformin as substrate (FIG. 15A); format: cell-based, human
[7] = target: T1, OCT2; test: Inhibition of OCT2-mediated ASP+ uptake (Kido et al., Giacomini group); details: human, cell line expressing human OCT2 (cell line not given), probe ASP+ 5 μM
[8] = target: T2, MATE1 (Homo sapiens, UniProt Q96FL8); test: Inhibition of MATE1-mediated oxaliplatin transport in human serum or 4% BSA HBSS
T2 sequence (Q96FL8 1-570): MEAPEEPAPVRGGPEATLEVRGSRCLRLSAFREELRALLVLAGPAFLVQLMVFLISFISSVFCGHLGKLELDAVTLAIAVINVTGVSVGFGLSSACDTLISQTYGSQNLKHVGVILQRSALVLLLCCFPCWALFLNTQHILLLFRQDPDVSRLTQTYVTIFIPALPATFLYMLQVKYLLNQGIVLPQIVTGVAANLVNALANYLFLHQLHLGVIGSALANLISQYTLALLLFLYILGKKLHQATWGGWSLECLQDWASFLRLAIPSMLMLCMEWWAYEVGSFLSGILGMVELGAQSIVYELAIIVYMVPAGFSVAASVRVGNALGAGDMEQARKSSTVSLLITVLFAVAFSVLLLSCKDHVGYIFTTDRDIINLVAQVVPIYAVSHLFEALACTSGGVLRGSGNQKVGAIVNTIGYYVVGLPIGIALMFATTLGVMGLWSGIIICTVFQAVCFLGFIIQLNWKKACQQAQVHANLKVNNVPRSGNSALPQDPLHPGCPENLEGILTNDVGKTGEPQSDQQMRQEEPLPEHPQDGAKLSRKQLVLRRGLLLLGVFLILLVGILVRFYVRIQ
Source text: as §1

[9] = target: T3, OCT2 over OCT1, OCT3 and MATE1 (Homo sapiens, UniProt O15244); test: Inhibition of OCT2-mediated oxaliplatin transport in 100% human serum or HBSS containing 4% BSA (IC50,app); details: human, MDCK-II cells transfected with human transporters, fold higher potency (selectivity) for OCT2 over OCT1, OCT3 and MATE1 in transporting oxaliplatin, from IC50,app of Table 4
T3 sequence (O15244 1-555): T1 sequence (O15244 1-555)
Source text: as §1

[10] = buflomedil 80 mg/kg po 2 hours before OXA, 8 cycles, n=3/group

MATE2K, sequence (Q86VL8 1-566 isoform Q86VL8-3): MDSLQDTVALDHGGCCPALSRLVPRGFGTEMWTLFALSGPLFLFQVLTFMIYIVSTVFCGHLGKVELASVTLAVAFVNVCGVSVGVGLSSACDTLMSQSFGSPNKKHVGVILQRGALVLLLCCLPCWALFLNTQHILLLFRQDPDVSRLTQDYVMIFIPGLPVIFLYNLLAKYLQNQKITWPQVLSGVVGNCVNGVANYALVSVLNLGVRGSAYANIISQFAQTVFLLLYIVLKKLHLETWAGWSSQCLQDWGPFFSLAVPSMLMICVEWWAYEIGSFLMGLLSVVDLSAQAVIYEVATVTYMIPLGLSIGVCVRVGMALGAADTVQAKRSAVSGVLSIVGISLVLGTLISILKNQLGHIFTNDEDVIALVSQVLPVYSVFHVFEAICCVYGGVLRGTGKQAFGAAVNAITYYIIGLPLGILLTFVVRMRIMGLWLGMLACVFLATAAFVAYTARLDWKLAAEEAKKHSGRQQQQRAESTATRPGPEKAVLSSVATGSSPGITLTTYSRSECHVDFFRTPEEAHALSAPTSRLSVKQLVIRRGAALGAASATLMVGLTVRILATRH

Row | SMILES | effect on anti-tumor potency of gemcitabine in HT-29 [1] | effect on anti-tumor potency of 5-FU in HT-29 [1] | Inhibition % @ 20 μM (substrate ASP+) [2] | IC50 [3] | caudal nerve action potential amplitude ([4]; listed as BFMD) | caudal nerve conduction velocity ([4]; listed as BFMD) | caudal nerve action potential amplitude ([4]; listed as buflomedil) | caudal nerve conduction velocity ([4]; listed as buflomedil) | nerve injury assessed by caudal NCV [4, 10] | Cold Plate Test pain signs after third injection ([5]; listed as BFMD) | Cold Plate Test pain signs after third injection ([5]; listed as buflomedil) | Cold Plate Test pain signs at the end of treatment (eight injections) ([5]; 8 cycles, listed as BFMD) | Cold Plate Test pain signs at the end of treatment (eight injections) ([5]; 8 cycles, listed as buflomedil) | cold allodynia (cold plate test) [5, 10] | inhibition selectivity between OCT2 and MATE1, metformin as substrate [6] | potency estimated from few doses [7] | IC50 [8] | selectivity ratio [9]
1 | COc1cc(OC)c(C(=O)CCCN2CCCC2)c(OC)c1 [Buflomedil, 4-pyrrolidin-1-yl-1-(2,4,6-trimethoxyphenyl)butan-1-one] | did not impact the anti-tumor effect of 5-FU and gemcitabine; also recorded: did not affect anti-tumor potency of gemcitabine | did not impact the anti-tumor effect of 5-FU and gemcitabine; also recorded: did not affect anti-tumor potency of 5-FU | 104% | 84 ± 23.1 µM | no statistically significant difference among CTRL. BFMD and OXA+BFMD groups | small but statistically significant increase when compared to OXA alone | effective on reducing peripheral neurotoxicity | effective on reducing peripheral neuropathy | effective on reducing nerve injury; also recorded: showed protective effects against OXAIPN | only the group treated with OXA alone showed a significant increase in pain signs | effective on reducing cold allodynia | significant decrease in pain signs versus OXA alone | effective on reducing cold allodynia | effective on reducing mechanical (FIG. 30A) and cold (FIG. 30B) allodynia; also recorded: showed protective effects against OXAIPN | no inhibition selectivity between OCT2 and MATE1 | < 0.1 µM | 32.7 ± 5.4 µM | > 10
2 | C[C@@H]1CCO[C@H]2Cn3cc(C(=O)NCc4ccc(F)cc4F)c(=O)c(O)c3C(=O)N12 [Dolutegravir] | did not impact the anti-tumor effect of 5-FU and gemcitabine | did not impact the anti-tumor effect of 5-FU and gemcitabine; also recorded: did not affect anti-tumor potency of 5-FU |  |  |  |  |  |  |  |  |  |  |  |  |  |  |  | ≥ 10
3 | Clc1ccc(COC(Cn2ccnc2)c2ccc(Cl)cc2Cl)c(Cl)c1 (stereo not shown) [Miconazole] |  |  | 91% | > 100 µM |  |  |  |  |  |  |  |  |  |  |  | 2 µM | > 100 µM | 
